These results are taken from article PMC11091220, “Metabolism-driven in vitro/in vivo disconnect of an oral ERɑ VHL-PROTAC” (Communications Biology, 2024).

For one test, the target named is T1, ERα (Homo sapiens, UniProt P03372).
T1 construct: endogenous in cells; host or cells: MCF7 (also MCF7 engineered to express Cas9)
T1 sequence (P03372 1-595): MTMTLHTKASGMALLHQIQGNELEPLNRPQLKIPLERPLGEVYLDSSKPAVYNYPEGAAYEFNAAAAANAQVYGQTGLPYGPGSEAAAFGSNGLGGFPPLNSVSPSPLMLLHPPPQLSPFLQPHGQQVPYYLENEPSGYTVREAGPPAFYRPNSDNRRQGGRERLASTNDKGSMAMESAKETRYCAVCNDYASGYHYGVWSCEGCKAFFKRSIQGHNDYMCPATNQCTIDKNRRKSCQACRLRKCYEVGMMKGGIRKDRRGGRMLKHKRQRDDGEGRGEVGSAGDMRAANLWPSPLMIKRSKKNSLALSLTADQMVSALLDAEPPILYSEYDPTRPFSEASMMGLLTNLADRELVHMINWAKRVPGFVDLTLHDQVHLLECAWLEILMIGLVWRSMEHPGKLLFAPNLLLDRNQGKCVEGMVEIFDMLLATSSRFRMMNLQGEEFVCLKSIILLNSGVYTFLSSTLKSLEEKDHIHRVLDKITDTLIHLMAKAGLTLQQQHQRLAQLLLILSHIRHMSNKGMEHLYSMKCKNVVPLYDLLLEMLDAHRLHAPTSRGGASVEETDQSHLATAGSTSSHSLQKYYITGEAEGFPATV
Nature of the test: CRISPR VHL knock out, ERα imaging in MCF7 Cas9 cells. Format: cell-based. The settings on record: MCF7 Cas9, 24 h. How it is done:
Chemically synthesised Edit-R crRNAs targeting VHL and ESR1 were purchased from Horizon Discovery (Cambridge, UK). Equal volumes of 4 crRNAs targeting each individual gene were pooled and then duplexed at a 1:1 ratio in 10 mM Tris pH7.4 buffer with tracrRNA (Horizon, U-002000-50) at room temperature. MCF7 cells were engineered to express cas9 under TetON promotor from the endogenous AAVS1 locus as described previously. Doxycycline-inducible Cas9 is linked via the cleavable T2A peptide to BFP enabling the identification of Cas9-positive cells by microscopy. MCF7 cas9 cells were cultured in RPMI phenol red free (Sigma) supplemented with 10% FBS and 1X GlutaMax (both Gibco). 72 h prior to reverse transfection, cas9 expression was induced by the addition 15 ng/mL doxycycline (Sigma) to the growth media.
MCF7 cells were reverse transfected with the crRNA:tracrRNA pools at 25 nM final concentration using Lipofectamine® RNAiMAX transfection reagent (Thermo Fisher): First crRNA:tracrRNA pools were dispensed into 384-well assay plates (Greiner, 781090), and incubated with 10 µL serum-free DMEM (Sigma) supplemented with 1% Lipofectamine RNAiMAX for 20 minutes at room temperature. […] Following image acquisition, analysis was completed using the Columbus Image Analysis platform (Perkin Elmer) to quantify ESR1 levels in cas9-positive cells. […]

Another test relates to CAMA1 cells. Nature of the test: Cell proliferation assay (Sytox Green), CAMA1. It is filed as cell-based. The settings on record: Homo sapiens, CAMA-1, 144 h; CAMA1, 6 days; read-out: growth inhibition IC50. How it is done: Cell proliferation was assessed by measuring live cell numbers using the Sytox Green assay. MCF7 and CAMA1 cells were seeded in 96-well clear-bottom black microplates (Costar) at 4x10^3 and 8x10^3 cells per well, respectively, based on the doubling time of each cell line. Plates were incubated at 37 °C, 5% CO2 for 24 hours prior to being treated with DMSO, AZ’6421 or fulvestrant in a 10-point concentration range, with a final DMSO concentration of 0.1%. A single plate was left untreated, designated a Day 0 plate. The number of live cells was determined at Day 0 and Day 7 using the Sytox green assay. Briefly, 5 mM Sytox green nucleic acid dye (Invitrogen) was diluted 1:2500 in 500 mM tris-buffered saline (TBS) with ethylenediaminetetraacetic acid (EDTA) and 7 μL was added per well. Plates were then incubated in the dark at room temperature for 1 hour and the number of green cells in each well (dead cells) was measured using an Acumen Explorer high-throughput cell imager (TTP Labtech). Next, 14 μL of 0.25% w/v Saponin in TBS/EDTA solution was added overnight to permeabilize the cells, permitting a total cell count. The number of live cells was calculated by subtracting the dead cell count from the total cell count. The data obtained were then used to perform curve fitting analysis using GraphPad Prism. Average cell counts from the Day 0 plate were used to determine 0% cell growth. […]

With `Cc1ncsc1-c1ccc(CNC(=O)[C@@H]2C[C@@H](O)CN2C(=O)[C@@H](NC(=O)COCCCOCCCOc2cc(F)c([C@@H]3c4[nH]c5ccccc5c4C[C@@H](C)N3CC(C)(C)F)c(F)c2)C(C)(C)C)cc1` [Compound 5], at ERα, the “effect of VHL knockout on ER degradation” value is given as “partially reduced”. For the same compound, in the test on CAMA1 cells, the IC50 was 0.2 nM.
